Reference: PMC3517626, “Targeting Fatty Acid Binding Protein (FABP) Anandamide Transporters – A Novel Strategy for Development of Anti-Inflammatory and Anti-Nociceptive Drugs” (PLoS ONE, 2012)
In brackets after ≈: the same amount, converted by molar mass. Values belong to the molecule of their own block, whether it stands above or below them.

How the values were obtained:
[1] = Solubility in DMSO; assay type: physicochemical; conditions: in DMSO at 25°C
[2] = molecular target: T1, human FABP5 (Homo sapiens, UniProt Q01469); conditions: cited from earlier work
T1 construct: FABP5 was purified and delipidated as described previously; made in house
T1 sequence (Q01469 whole entry): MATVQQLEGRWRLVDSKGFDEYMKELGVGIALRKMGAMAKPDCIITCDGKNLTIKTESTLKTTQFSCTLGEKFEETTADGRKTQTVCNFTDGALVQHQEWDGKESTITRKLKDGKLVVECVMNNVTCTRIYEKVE

[3] = molecular target: T1, human FABP5; experiment: Fluorescence displacement assay with NBD-stearate; assay type: binding; conditions: test compound 10 µM, NBD-stearate 1 µM
Experimental: FABP5 was purified and delipidated as described previously. FABP5 (30 µg), NBD-stearate (1 µM), and a competitor test compound were incubated in 30 mM Tris-HCl, 100 mM NaCl buffer (pH 7.6). Competitors included arachidonic acid, BMS309403, 48 test compounds from ChemDiv library, SB-FI-26 and SB-FI-49. The initial assay was run with buffer (30 mM Tris-HCl buffer), negative controls (buffer and NBD-stearate), positive controls (buffer, NBD-stearate, FABP5), and experimental wells with a variable test compound added (arachidonic acid or one of the 48 test compounds) at 10 µM. […] The fluorescent assays were tested in the wells of Microtest 96-well Assay Plates, Optilux (BD Biosciences, Franklin Lakes, NJ) and loss of fluorescence intensity was measured with a FLUOstar OPTIMA spectrofluorometer set to excitation and emission wavelengths of 460 nm and 544 nm, respectively. […] The Kd of NBD-stearate for FABP5 had been determined previously through incubating FABP5 with increasing concentrations of NBD-stearate.

[4] = tested on: male C57Bl6 mice; experiment: Formalin test; assay type: in vivo
Experimental: (§1) We used male C57Bl6 mice (22–30 g, Taconic Farms) for all experiments. The animals were group housed at room temperature and kept on a 12∶12 hour light∶dark cycle with ad libitum access to water and food. The animals were habituated to the experimental room for one week before testing.
Mice were habituated to the observation chamber (Plexiglas box, 25 cm×25 cm×25 cm) for 30 min prior to formalin injection. The mice subsequently received an injection of formalin (2.5% in saline, 20 µl) into the plantar surface of the right hind paw using a 27 gauge needle. The animals were immediately placed back into the observation chamber and nocifensive behavior (time spent licking or biting the paw) was recorded for 60 min. The formalin test consists of two phases with the first phase (0–5 min) reflecting nociceptor activation and the second phase (15–45 min) reflecting an inflammatory pain response.

[5] = molecular target: T2, PPARγ (Homo sapiens, UniProt P37231); experiment: PPARγ transactivation in HeLa cells; assay type: cell-based; conditions: reporter system, 6 hrs
T2 construct: expressed in transfected cells; host or cells: HeLa
T2 sequence (P37231 1-505): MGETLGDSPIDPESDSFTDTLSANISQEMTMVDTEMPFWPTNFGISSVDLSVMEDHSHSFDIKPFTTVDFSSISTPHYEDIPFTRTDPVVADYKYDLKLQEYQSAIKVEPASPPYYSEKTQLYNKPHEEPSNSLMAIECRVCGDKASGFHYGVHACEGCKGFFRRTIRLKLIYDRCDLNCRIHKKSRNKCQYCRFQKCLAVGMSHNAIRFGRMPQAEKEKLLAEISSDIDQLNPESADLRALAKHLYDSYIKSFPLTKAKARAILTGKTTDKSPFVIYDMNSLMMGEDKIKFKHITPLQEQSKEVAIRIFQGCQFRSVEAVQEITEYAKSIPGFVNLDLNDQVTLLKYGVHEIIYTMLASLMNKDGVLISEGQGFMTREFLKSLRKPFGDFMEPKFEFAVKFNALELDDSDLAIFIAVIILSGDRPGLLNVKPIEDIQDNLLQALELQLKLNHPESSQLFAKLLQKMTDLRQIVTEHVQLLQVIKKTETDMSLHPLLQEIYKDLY
Experimental: (§2) PPARα and PPARγ transactivation assays were performed in HeLa cells exactly as described. Briefly, cells were transfected with the PPAR reporter system, incubated with GW7647, rosiglitazone, or SB-FI-26 for 6 hrs, followed by measurement of luciferase and β-galactosidase activity using a luminometer as described.

[6] = tested on: male C57Bl6 mice; experiment: Carrageenan-induced paw edema and thermal hyperalgesia; assay type: in vivo
Experimental: as §1
Paw edema was induced by injecting 1% λ-carrageenan (20 µl, in sterile saline) into the plantar surface of the left hind paw and a control solution of saline into the right hind paw using a 27 gauge needle. Paw diameters were measured before carrageenan injection and 4 hours after injection using digital electronic calipers (Fisher) and expressed to the nearest ±0.01 mm. SB-FI-26 (20 mg/kg, i.p.) was dissolved in ethanol∶emulphor∶saline (1∶1∶18), requiring sonication and gentle heating for solubilization, and administered 45 min prior to injection of carrageenan. The cannabinoid receptor antagonists, rimonabant and SR144528 (3 mg/kg, i.p.), in ethanol∶emulphor∶saline (1∶1∶18), were injected 15 min before the FABP inhibitor. Edema is reported as the change in paw diameter at 4 hr over the baseline. Changes in paw diameter of saline-injected contralateral paws were negligible. Thermal hyperalgesia measured the latency to withdraw the paw from a focused beam of radiant heat applied to the plantar surface of the hind paw using a Hargreaves plantar apparatus (Ugo Basile) set at an intensity of 3.0. For each mouse, the average latencies consisted of three trials spaced at least 5 minutes apart. The mice were habituated to the test chamber for 30 min. The cutoff time was set at 30 sec.

[7] = molecular target: T3, PPARα (Homo sapiens, UniProt Q07869); experiment: PPARα transactivation in HeLa cells; assay type: cell-based; conditions: reporter system, 6 hrs
T3 construct: expressed in transfected cells; host or cells: HeLa
T3 sequence (Q07869 1-468): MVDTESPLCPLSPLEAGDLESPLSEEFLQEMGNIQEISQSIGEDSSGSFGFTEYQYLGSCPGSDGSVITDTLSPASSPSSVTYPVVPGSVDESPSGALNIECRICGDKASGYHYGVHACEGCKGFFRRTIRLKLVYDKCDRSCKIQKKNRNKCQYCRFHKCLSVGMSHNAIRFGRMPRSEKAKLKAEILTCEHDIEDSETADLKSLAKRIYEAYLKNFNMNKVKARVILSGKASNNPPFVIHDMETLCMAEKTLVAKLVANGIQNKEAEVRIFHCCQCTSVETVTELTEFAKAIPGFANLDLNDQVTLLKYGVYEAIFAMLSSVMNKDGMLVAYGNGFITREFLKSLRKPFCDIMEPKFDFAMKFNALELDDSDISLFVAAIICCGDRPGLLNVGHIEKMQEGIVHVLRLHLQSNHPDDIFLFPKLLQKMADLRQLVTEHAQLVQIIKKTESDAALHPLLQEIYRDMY
Experimental: as §2

[8] = tested on: CB1 receptors; experiment: Patch-clamp electrophysiology in brain slices (EPSCs of dorsal raphe 5-HT neurons); assay type: cell-based; conditions: bath application 10 µM; DR 5-HT neurons; n = 8; mean ± SEM
Experimental: Whole-cell-voltage clamp recordings of dorsal raphe (DR) serotonin (5-HT) neurons were performed as previously described. Briefly, DR neurons were visualized using an upright microscope (BX 51 WI, Olympus, Tokyo, Japan) equipped with a differential interference contrast and infrared imaging system. Somatic recordings from DR neurons were obtained with path electrodes ([…]) back-filled with potassium gluconate based internal solution of the following composition: 120 mM potassium gluconate, 10 mM KCl, 10 mM Na2-phosphocreatine, 10 mM HEPES, 1 mM MgCl2, 1 mM EGTA, 2 mM Na2-ATP, 0.25 mM Na-GTP, pH 7.3 (Adjusted with KOH; Osmolarity, 280 to 290 mOsmol/l). All the recordings were conducted in the presence of GABAA receptor antagonist picrotoxin (100 µM). Excitatory postsynaptic currents (EPSCs) were evoked with a single square stimulus (intensity, 1 to 10 V, duration, 100 to 200 µs) delivered via a glass stimulating electrode. […]
The amplitude of EPSCs was determined by measuring the average current during a 2-ms period at the peak of each EPSC and subtracted from the baseline current determined during a 5-ms time window before the stimulus. All EPSC amplitudes were normalized to the mean baseline amplitude recorded for at least 10 min before drug application. […]

[9] = molecular target: T4, rat FAAH (Rattus norvegicus, UniProt P97612); experiment: FAAH enzyme assay ([14C]AEA hydrolysis in HeLa homogenates); assay type: biochemical; conditions: FAAH-transfected HeLa homogenates
T4 construct: expressed in transfected cells; host or cells: HeLa (homogenates)
T4 sequence (P97612 1-579): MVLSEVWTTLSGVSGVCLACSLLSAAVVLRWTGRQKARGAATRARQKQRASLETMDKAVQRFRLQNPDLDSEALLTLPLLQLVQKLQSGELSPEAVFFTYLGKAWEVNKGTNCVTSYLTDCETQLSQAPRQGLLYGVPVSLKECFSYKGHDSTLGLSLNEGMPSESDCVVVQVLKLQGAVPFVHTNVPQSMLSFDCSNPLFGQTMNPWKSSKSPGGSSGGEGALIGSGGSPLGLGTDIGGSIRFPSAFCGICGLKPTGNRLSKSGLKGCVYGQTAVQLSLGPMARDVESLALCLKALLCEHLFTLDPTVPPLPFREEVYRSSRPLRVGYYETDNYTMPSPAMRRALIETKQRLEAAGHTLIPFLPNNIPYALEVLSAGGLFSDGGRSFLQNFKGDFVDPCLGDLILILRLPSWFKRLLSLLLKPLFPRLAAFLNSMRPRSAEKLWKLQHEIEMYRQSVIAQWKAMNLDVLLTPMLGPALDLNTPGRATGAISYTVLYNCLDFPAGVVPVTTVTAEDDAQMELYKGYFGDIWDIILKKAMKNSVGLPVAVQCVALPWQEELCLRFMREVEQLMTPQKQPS
Experimental: Enzyme assays measuring the hydrolysis of [^14C]AEA in the presence of SB-FI-26 or the FAAH inhibitor URB597 were carried out in HeLa homogenates expressing rat FAAH as described.

[10] = tested on: AEA uptake in HeLa cells; experiment: AEA uptake in HeLa cells; assay type: cell-based
Experimental: AEA uptake assays in wild-type and FABP5 knockdown HeLa cells were performed exactly as described.

solubility [1]: 1000 µM (≈ 475 µg/mL)
Structure (SMILES): CCc1c(-c2ccccc2)c(-c2ccccc2)nn1-c1ccccc1-c1cccc(OCC(=O)O)c1 [BMS309403, reference compound]

Structure (SMILES): CCCCCCC(CCCCCCCCCCC(=O)O)N(C)c1ccc([N+](=O)[O-])c2nonc12 (centres unmarked) [NBD-stearate, 12-N-methyl-(7-nitrobenz-2-oxa-1,3-diazo)aminostearic acid]
Kd ([2]; one site binding analysis, determined previously, read-out: Kd of NBD-stearate for FABP5): 160 nM

inhibition at 10 µM [3]: ≥ 50%
Structure (SMILES): COc1cccc([C@@H]2Oc3ccccc3[C@@H]3CC(c4cccs4)=CN32)c1CC(=O)O [SB-FI-19]

nocifensive behavior when administered alone ([4]; intraplantar injection of 20 µg, no formalin): did not evoke nocifensive behavior
activation of PPARγ [5]: ~3 fold
paw edema when administered alone ([6]; without carrageenan): did not induce paw edema
activation of PPARα [7]: ~2 fold
solubility [1]: 1000 µM (≈ 422 µg/mL)
inhibition of FAAH (AEA hydrolysis) [9]: does not inhibit FAAH
Structure (SMILES): O=C(O)[C@H]1[C@@H](c2ccccc2)[C@H](C(=O)Oc2cccc3ccccc23)[C@@H]1c1ccccc1 [SB-FI-26, α-Truxillic acid 1-naphthyl ester]
nocifensive behavior, first phase of the formalin test ([4]; 20 mg/kg, i.p., first phase 0–5 min): significantly reduced nocifensive behavior
carrageenan-induced thermal hyperalgesia ([6]; 20 mg/kg, i.p., 45 min prior to carrageenan): significantly reduced
carrageenan-induced paw edema ([6]; 20 mg/kg, i.p., 45 min prior to carrageenan, paw diameter at 4 hr): significantly reduced
antinociceptive and anti-edematous effects after pretreatment with rimonabant and SR144528 ([6]; SB-FI-26 20 mg/kg i.p., antagonists 3 mg/kg i.p. 15 min before): completely reversed
amplitude of EPSCs [8]: 107±6.7 % of baseline
AEA uptake ([10]; HeLa cells bearing a knockdown of FABP5 (shRNA)): failed to reduce AEA uptake
cellular AEA accumulation (AEA uptake) ([10]; wild-type HeLa cells): significantly inhibited cellular AEA accumulation

inhibition at 10 µM [3]: ≥ 50%
Structure (SMILES): O=C(O)[C@H]1CC(=O)N(Cc2ccc3c(c2)OCO3)/C(=N/c2ccc(F)cc2)S1 [SB-FI-27]

inhibition at 10 µM [3]: ≥ 50%
Structure (SMILES): Cn1c(C(=O)O)c(CC(=O)N2CCC(Cc3ccccc3)CC2)c2ccccc21 [SB-FI-31]

solubility [1]: 200 µM (≈ 84.5 µg/mL)
Structure (SMILES): O=C(O)[C@H]1[C@@H](c2ccccc2)[C@H](C(=O)Oc2cccc3ccccc23)[C@@H]1c1ccccc1 [SB-FI-49, γ-Truxillic acid 1-naphthyl ester]

Structure (SMILES): CCCCC/C=C\C/C=C\C/C=C\C/C=C\CCCC(=O)O [arachidonic acid]
Ki ([2]; arachidonic acid, positive control, binding to FABP5, ref not given): 130 nM
